Laboratory results: US5972952A, “Neuroprotective pharmaceutical composition containing stereoisomers of arylcyclohexylamines” (Le Centre National De La Recherche Scientifique, priority 1996, dated 1999)

What was measured:
[1] = test system: mixed neuronal and glial neocortical cells; test: Protection of cultured neuronal cells against glutamate neurotoxicity (LDH release); assay type: cell-based, Sprague-Dawley rat; conditions: Rattus norvegicus, glutamate 500 μM for 5 min, 24 h, 100% = glutamate without test compound, read-out: % OF DEAD; for neurotoxicity, % of glutamate alone at 0.1 µM: test compound 0.1 μM; for neurotoxicity, % of glutamate alone at 1 µM: test compound 1 μM; for neurotoxicity, % of glutamate alone at 5 µM: test compound 5 μM; for neurotoxicity, % of glutamate alone at 10 µM: test compound 10 μM
Method: Cultures of mixed neuronal and glial neocortical cells were prepared from 18-day-old Sprague-Dawley rat foetuses (IFFA-Credo, St. Germain l'Arbresle, France). The cerebral hemispheres were rapidly dissected in Hanks' BSS supplemented with glucose (6 g/l), incubated in trypsine-EDTA (5 min at 35° C.), rinsed with calcium/magnesium-free glucosed Hanks' and mechanically dissociated. After centrifugation (10 min, 70 g), the cells were resuspended in the culture medium consisting of 87% Eagle's minimal essential medium (MEM), 10% horse serum and 0.6% glucose (without antibiotics), and plated on poly-d-lysine (10 μg/cm^2) coated coverslips, in 24-well dishes, to a final density of 4×10^5 cells/cm^2 in 400 μl/well. The cultures were maintained for 2-3 weeks at 35° C. in a humidified atmosphere (95% air/5% CO2), one-third of the medium being replaced every 4 days.
After 17-20 days in vitro, the culture medium was replaced with 400 μl of experimental medium (EM supplemented with glucose) containing the test compound for 5 min. at room temperature. This medium was replaced with the experimental medium containing the same concentration of test compound plus glutamate 500 μM for another 5 min. Finally, the cells were rinsed with the experimental medium and incubated for 24 h. The control cultures had received the same number of replacements of medium as the experimental ones, with standard experimental medium. The 100% neurotoxicity level was based on the effect of glutamate 500 μM for 5 min. The protective effect was quantified by estimation of the activity of the lactate dehydrogenase (LDH) released in the medium. Culture supernatant (100 μl) was added to phosphate buffer (875 μl, 125 mM, pH 7.6) containing 0.3 mM pyruvic acid and β-NADH (25 μl, 10 mg/ml). The decrease in absorbance was measured at 340 nm (Lockhart, et al., Brain Res. 630:36-40 (1993)).
Four concentrations of test compounds were used, i.e., 10, 5, 1, and 0.1 μM. The dead-cell population was determined by LDH enzymic activity and the results, presented in Table II, were compared with the 100% mortality based on the 500 μM glutamate treated cells without test compound protection.

[2] = biological target: PCP receptor; test: [^3H]TCP binding to the PCP receptor (rat brain minus cerebellum homogenate); conditions: inhibition of [^3H]TCP (1 nM) specific binding, 30 min, 25° C., pH 7.7
Method: 1-[1-(2-thienyl)-2-methylcyclohexyl]piperidine (TCP) binding to the PCP receptor was performed as previously described. […] The rat brain (minus the cerebellum) was removed and homogenized with an Ultraturax (Ika Werke, Staufen, Germany, maximum setting) in a 50 mM Tris/HCl, pH 7.7 buffer for 20 s at 4° C. The homogenate was then centrifuged at 49,000 g for 20 min. and the pellet was resuspended in the same buffer and the homogenization-centrifugation steps performed a second time. The final pellet was resuspended in 10 volumes of a 50 mM Tris/Hepes, pH 7.7 buffer and used without further purification.
The homogenate (0.5-0.8 mg protein/ml) was incubated with N-[1-(2-thienyl) cyclohexyl]3,4-[^3 H]piperidine ([^3 H]TCP, 1 nM) (Amersham, Arlington Heights, Ill, 48 Ci/mmol) in a 5 mM Tris/Hepes, pH 7.7 buffer in the absence (total binding) and in the presence of the test compounds for 30 min. at 25° C. in a volume of 0.5 ml. […] The filters were rinsed twice with 5 ml of a 50 mM NaCl, Tris HCl 10 mM, pH 7.7 buffer and the radioactivity retained counted in 3.5 ml ACS (Amersham) with an Excel 1410 (LKB) liquid scintillation spectrophotometer. The nonspecific binding was determined in parallel experiments in the presence of 100 μM unlabeled TCP.

| Compound | neurotoxicity, % of glutamate alone at 0.1 µM [1] | neurotoxicity, % of glutamate alone at 1 µM [1] | neurotoxicity, % of glutamate alone at 5 µM [1] | neurotoxicity, % of glutamate alone at 10 µM [1] | IC50 [2] |
| --- | --- | --- | --- | --- | --- |
| C[C@@H]1CCCC[C@]1(c1ccco1)N1CCCCC1 [(1S,2R)1-[1-(2-Furanyl)-2-methylcyclohexyl]-piperidine] | 92.5% | 83.6% | 43.3% | 32.1% | 5.5 ± 1.9 nM |
| C[C@@H]1CCCC[C@]1(c1cccs1)N1CCCCC1 [(1S,2R)1-[1-(2-Thienyl)-2-methylcyclohexyl]-piperidine] | 90.3% | 32.9% | 27.2% | 29.7% | – |
